Key:
Type in all cases: cell-based, mouse
primary neurons = experiment: Cell death induction, dead neurons with CellTox green reagent; conditions: 1 µM UNC0642 pre-treated 24 hours
Method: (§1) For primary cortical cultures pregnant C57BL/6J, or G9afl/fl;Snap25-Cre mice were euthanized. To ensure comparability between genotypes, only embryos from heterozygous breeding's were used. Brainstem tissue of each embryo for genotyping was reserved and cortices were isolated, dissociated and cells were plated at a density of 1 × 10^5 cells per 1 cm^2 on poly-D-lysine-coated wells (5 µM Sigma-Aldrich, cat. no. A-003-M). If not stated otherwise, cells were maintained in neurobasal plus medium (supplemented with B27 plus, penicillin, streptomycin and L-glutamine; Gibco, cat. no. A3582901) at 37°C, 5% CO^2 and a relative humidity of 98%, and treated with 1 µM cytarabine (Sigma-Aldrich, cat. no. BP383) at 1 day in vitro (div) to inhibit glial cell proliferation. If no cytarabine was applied cells were maintained in PNBM medium (supplemented with neural cell survival factor, gentamycin and L-glutamine; Lonza). Throughout, cultures after 14-23 div were used for experiments. G9a inhibitor UNC0642 was used in a concentration of 1 µM and cultures were pre-treated 24 hours before further experimental procedures.
Primary neurons were subjected to dedicated compounds initiating either apoptosis (stauro-sporine), necroptosis (TNF-α + LCL-161 + Z-VAD-FMK, or shikonin), or ferroptosis (RSL3, or erastin) for 48 h in G9afl/fl;Snap25-Cre cultures, or cultures pre-treated for 24 hours with 1 µM UNC0642. Together with the cell death inducing compounds, CellToxTM Green Cytotoxicity Assay (Promega) was added to primary neurons 1:2000. Before fixation with 4% paraformaldehyde, cells were counterstained with Hoechst […]. Neurons were imaged on a Zeiss LSM 700 confocal microscope using 20× magnification.

[1] = test system: primary neuronal cultures; experiment: Oxidative stress detection with CellROX green reagent after glutamate; conditions: 20 µM glutamate 1 hour, UNC0642 pre-treatment
Method: as §1
For the detection of oxidative stress in response to glutamate treatment, CellROX green reagent (Thermofisher) was used. […] Immunofluorescence of nuclear CellROX dye was quantified using Fiji (ImageJ).

cyclooxygenase-2 (COX-2) = experiment: COX-2 immunostaining after glutamate stimulation; conditions: glutamate excitotoxicity ± UNC0642
Method: as §1
Immunocytochemistry was performed as described previously (15). […] Immunostainings were analyzed with a Zeiss LSM 700 confocal microscope.

[2] = test system: primary neuronal cultures; experiment: Cytosolic calcium imaging of H2O2-exposed neuronal cultures; conditions: acute hydrogen peroxide stimulation, UNC0642 vs. DMSO
Method: as §1, with “Throughout, cultures after 14-23 div were used for experiments. G9a inhibitor UNC0642 was used in a concentration of 1 µM and cultures were pre-treated 24 hours before further experimental procedures.” left out
Primary neuronal cultures were seeded on Ibidi 60 µ-Dish Quad (cat. No. 80411) plates. […] Before applying the indicated chemicals, 5-10 min of baseline activity was first recorded. […] For data analysis, mean fluorescence values of every cell were measured using Fiji software (NIH) and normalized to the maximal calcium response after ionomycin challenge. For each cell, mean AUC of the calcium response was calculated using a custom R script.

Structure (SMILES): COc1cc2c(NC3CCN(C(C)C)CC3)nc(N3CCC(F)(F)CC3)nc2cc1OCCCN1CCCC1 [UNC0642, 2-(4,4-difluoropiperidin-1-yl)-6-methoxy-N-[1-(propan-2-yl)piperidin-4-yl]-7-[3-(pyrrolidin-1-yl)propoxy]quinazolin-4-amine]
- ferroptosis (dead neurons) induced by RSL3 (primary neurons; 48 h inducer): substantially rescued
- ferroptosis (dead neurons) induced by erastin (primary neurons; 48 h inducer): substantially rescued
- necroptosis (dead neurons) (primary neurons; TNF-α + LCL-161 + Z-VAD-FMK, or shikonin, 48 h): neither apoptosis nor necroptosis was affected
- apoptosis (dead neurons) (primary neurons; staurosporine 48 h): neither apoptosis nor necroptosis was affected
- generation of ROS (CellROX green) [1]: reduced the generation of ROS close to baseline levels
- induction of COX-2-positive cells (cyclooxygenase-2 (COX-2)): almost completely abolished its induction
- hydrogen peroxide-induced calcium overload [2]: rescued hydrogen peroxide-induced calcium overload
